Results: ChEMBL document CHEMBL1145311 (Bioorg Med Chem Lett, 2006)

Biological target: T1, Dihydrofolate reductase (Pneumocystis carinii, UniProt P16184)
T1 sequence (P16184 whole entry): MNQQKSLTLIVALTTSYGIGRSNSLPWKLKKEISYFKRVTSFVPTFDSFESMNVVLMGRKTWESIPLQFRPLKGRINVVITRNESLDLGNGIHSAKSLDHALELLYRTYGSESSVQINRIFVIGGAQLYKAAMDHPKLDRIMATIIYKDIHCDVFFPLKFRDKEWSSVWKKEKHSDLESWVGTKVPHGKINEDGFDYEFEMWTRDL
Description: Inhibition of Pneumocystis carinii DHFR

IC50: 210 nM
Structure (SMILES): Nc1nc(N)c2nc(CN3c4ccccc4CCc4ccccc43)cnc2n1
